Patent US20240041884A1, “Pharmaceutical Combinations for Treating Cancer” (Cellestia Biotech AG, priority 2020, published 2024)

Tests used:
RPMI-8402 cells = experiment: Single agent screening, alamarBlue proliferation assay; assay type: cell-based; conditions: Homo sapiens, RPMI-8402, 72 hours, read-out: IC50 (μM) values of drugs used as single agent
Method: (§1) To determine effect of 6-(4-(tert-butyl)phenoxy)pyridin-3-amine with inhibitors of anti-apoptotic proteins, drugs listed in table 1 were used.
(§2) Cells were treated with each of the listed compounds in table 1 as single agent with a concentration ranging from 10 nM to 10 μM in duplicates. Following treatment for 72 hours, cells were incubated with alamarBlue® for 4 hours and cell proliferation readout was taken using Infinite® F500 (Tecan) plate reader. All volumes (cells and alamarBlue®) were dispensed using Multidrop Combi dispenser using a standard cassette (Speed MEDIUM).
(§3) AlamarBlue® viability assay: alamarBlue® proliferation assays were performed to determine the growth kinetics of compound treated cells. alamarBlue® consists of a cell permeable substrate resazurin. In metabolically active and proliferating cells, resazurin is converted to resorufin due to an intrinsic reducing power of live cells and produces a red fluorescence. Therefore, production of resorufin serves as an indicator of the viability of the cell population. Proliferation assays were performed by seeding 1500 cells/well in 384 well plate format. Cells were treated in duplicates with pre-determined concentration of compounds as a single agent or in combination with 6-(4-(tert-butyl)phenoxy)pyridin-3-amine for 72 hours. To determine growth kinetics, alamarBlue® (Invitrogen) was added to each well and incubated for 4 hours. alamarBlue® readout was taken using Infinite® F500 (Tecan) plate reader.
(§4) Data analysis for individual compounds: To determine anti-proliferative activity and IC50 values of individual compounds (listed in table 1) against HCC1187, MCF-7 and RPMI-8402 cells, data were analyzed using GraphPad Prism.

HCC1187 cells = experiment: as above; assay type: cell-based; conditions: Homo sapiens, HCC1187, 72 hours, read-out: IC50 (μM) values of drugs used as single agent
Method: as §1, §2, §3, §4

MCF-7 cells = experiment: as above; assay type: cell-based; conditions: Homo sapiens, MCF7, MCF-7, 72 hours, read-out: IC50 (μM) values of drugs used as single agent
Method: as §1, §2, §3, §4

[1] = test system: ACC PDX (human adenoid cystic carcinoma patient-derived xenograft); experiment: In vivo efficacy in ACC PDX model, tumor growth inhibition; conditions: ACC PDX in athymic nude mice; for Percentange tumor growth inhibition (TGI): 6-(4-(tert-butyl)phenoxy)pyridin-3-amine 60 mg/kg SC qdx5, Navitoclax 50 mg/kg PO qdx5; for effect on ACC PDX tumor growth: doses of table 5, compared to vehicle
Excerpt: In Vivo Efficacy Evaluation of 6-(4-(tert-butyl)phenoxy)pyridin-3-amine and BCL-2 inhibitor ABT-263 (Navitoclax) in a NOTCH! and BCL-2 Positive Patient-Derived Xenograft (ACC PDX) Model Representing Human Adenoid Cystic Carcinoma in Immune-Deficient Mice
ACC PDX model was implanted into Immuno deficient mice and upon reaching a tumor volume of 150-300 mm^3, animals were randomized for treatment with different agents as indicated below.
Athymic mice transplanted with ACC PDX model were randomized into 4 treatment cohorts. Vehicle treatment • 2. 6-(4-(tert-butyl)phenoxy)pyridin-3 -amine • 3. ABT-263 • 4. 6-(4-(tert-butyl)phenoxy)pyridin-3-amine+ABT-263
Tumor volume was measured every 3-4 days. Mean tumor volume and SEM was calculated and Tumor growth inhibition was calculated using the formula TGI=1−(TXFavg−TXiavg)/(Cfavg−Ciavg), where TX is drug treatment group, favg=average tumor volume at treatment end, iavg=average tumor volume upon treatment initiation, C=Vehile treatment group.

[2] = test system: Primary human T cell acute lymphoblastic leukemia with activated NOTCH pathway; experiment: Efficacy in mice bearing primary human T-ALL, survival; assay type: in vivo; conditions: NSG mice; 6-(4-(tert-butyl)phenoxy)pyridin-3-amine 40 mg/kg QD5 until termination, Venetoclax 25 mg/kg QD for 7 days
Method: Efficacy of 6-(4-(tert-butyl)phenoxy)pyridin-3-amine+Venetoclax combination Primary human T cell acute lymphoblastic leukemia with activated NOTCH pathway were intravenously infused into NSG mice. After 7 days of disease establishment, leukemia-bearing mice were treated as below: • 1. Group 1: Vehicle treatment • 2. Group 2: 6-(4-(tert-butyl)phenoxy)pyridin-3-amine treatment at 40 mg/kg, QD5 until termination of the group • 3. Group 3: Venetoclax treatment at 25 mg/kg, QD for 7 days only • 4. Group 4: Venetoclax at 25 mg/kg , QD for first 7 days+6-(4-(tert-butyl)phenoxy)pyridin-3-amine at 40 mg/kg, QD5 until termination of the group.
Animals were monitored for survival on a daily basis.

blood cells = experiment: Safety evaluation in wildtype mice, whole blood analysis; assay type: in vivo; conditions: 4 consecutive days, day 5 bleed, Venetoclax 12.5, 25, 50 mg/kg, 6-(4-(tert-butyl)phenoxy)pyridin-3-amine 60 mg/kg
Method: Wildtype mice were weighed and dosed for 4 consecutive days as below: • 1. Group 1: Vehicle+Vehicle • 2. Group 2: Vehicle+12.5 mg/kg Venetoclax • 3. Group 3: Vehicle+25 mg/k Venetoclax • 4. Group 4: Vehicle+50 mg/kg Venetoclax • 5. […] On day 5, animals were tail vein bled and whole blood analysis was carried out to determine numbers of different cells.

IC50 (HCC1187 cells) [µM] | IC50 (MCF-7 cells) [µM] | SMILES | IC50 (RPMI-8402 cells) [µM] | Percentange tumor growth inhibition (TGI) [1] [%] | effect on ACC PDX tumor growth [1] | Number of days by which 100% animals died due to leukemia [2] [days] | effect on blood cells (whole blood analysis) (blood cells)
0.24 | 0.37 | Cc1c(-c2c(-c3ccc(F)o3)sc3ncnc(O[C@H](Cc4ccccc4OCc4ccnn4CC(F)(F)F)C(=O)O)c23)ccc(OCCN2CCN(C)CC2)c1Cl (atropisomer, axis not shown) [S63845, (2R)-2-[5-[3-chloro-2-methyl-4-[2-(4-methylpiperazin-1-yl)ethoxy]phenyl]-6-(5-fluorofuran-2-yl)thieno[2,3-d]pyrimidin-4-yl]oxy-3-[2-[[2-(2,2,2-trifluoroethyl)pyrazol-3-yl]methoxy]phenyl]propanoic acid] | 0.04 |  |  |  | 
 |  | CC(C)(C)c1ccc(Oc2ccc(N)cn2)cc1 [6-(4-(tert-butyl)phenoxy)pyridin-3-amine] |  | 37 | induces tumor growth retardation compared to vehicle treated group | 30 | 
20 | 21 | CC1(C)CCC(c2ccc(Cl)cc2)=C(CN2CCN(c3ccc(C(=O)NS(=O)(=O)c4ccc(N[C@H](CCN5CCOCC5)CSc5ccccc5)c(S(=O)(=O)C(F)(F)F)c4)cc3)CC2)C1 [ABT-263 (Navitoclax), 4-[4-[[2-(4-chlorophenyl)-5,5-dimethylcydohexen-1-yl]methyl]piperazin-1-yl]-N-[4-[[(2R)-4-morpholin-4-yl-1-phenylsulfonylbutan-2-yl]amino]-3-(trifluoromethylsulfonyl)phenyl]sulfonylbenzamide] | 5.5 | 57 | induces tumor growth retardation compared to vehicle treated group |  | 
 |  | CC1(C)CCC(CN2CCN(c3ccc(C(=O)NS(=O)(=O)c4ccc(NCC5CCOCC5)c([N+](=O)[O-])c4)c(Oc4cnc5[nH]ccc5c4)c3)CC2)=C(c2ccc(Cl)cc2)C1 [Venetoclax, 4-[4-[[2-(4-chlorophenyl)-4,4-dimethylcydohexen-1-yl]methyl]piperazin-1-yl]-N-[3-nitro-4-(oxan-4-ylmethylamino)phenyl]sulfonyl-2-(1H-pyrrolo[2,3-b]pyridin-5-yloxy)benzamide] |  |  |  | 28 | decrease of white blood cells, lymphocytes, neutrophils, monocytes and mean platelet mass
